Results published in patent US5710174A, “Factor XIIIA inhibitor” (Zymo Genetics, Inc., priority 1995, dated 1998).
Read-outs that look alike come from different tables or passages of the source.

Columns and labels:
[1] = target: T1, tissue transglutaminase (tTG) (Cavia cutleri, UniProt P08587); experiment: tTG screening assay; type: biochemical
T1 construct: purchased Sigma
T1 sequence (P08587 1-690): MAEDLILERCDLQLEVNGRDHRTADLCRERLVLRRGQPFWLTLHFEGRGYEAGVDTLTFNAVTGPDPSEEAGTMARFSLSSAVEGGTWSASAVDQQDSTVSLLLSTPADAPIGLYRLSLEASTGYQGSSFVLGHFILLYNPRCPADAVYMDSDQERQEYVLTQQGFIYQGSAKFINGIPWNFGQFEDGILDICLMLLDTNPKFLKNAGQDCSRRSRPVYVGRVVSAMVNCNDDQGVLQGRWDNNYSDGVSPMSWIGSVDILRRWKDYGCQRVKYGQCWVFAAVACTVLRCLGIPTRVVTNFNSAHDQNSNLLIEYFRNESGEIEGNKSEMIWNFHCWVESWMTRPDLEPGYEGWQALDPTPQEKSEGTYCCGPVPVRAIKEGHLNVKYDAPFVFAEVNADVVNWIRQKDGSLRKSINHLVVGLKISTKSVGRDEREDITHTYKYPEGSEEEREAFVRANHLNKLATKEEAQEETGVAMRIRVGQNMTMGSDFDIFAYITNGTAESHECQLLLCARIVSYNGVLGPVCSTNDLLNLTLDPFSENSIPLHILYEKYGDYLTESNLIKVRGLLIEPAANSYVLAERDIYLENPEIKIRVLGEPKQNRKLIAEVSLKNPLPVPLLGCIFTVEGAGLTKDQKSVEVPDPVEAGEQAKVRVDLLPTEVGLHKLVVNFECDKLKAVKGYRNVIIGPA
Excerpt: Because FXIII is a member of the tissue transglutaminase (tTG) family, all potential FXIIIa inhibitors identified in the primary FXIIIa screening assay were further screened for tTG (non-FXIII-specific) inhibitory activity. The tTG screening assay was identical to the primary FXIIIa screening assay, except that tTG (Sigma) was used instead of FXIIIa and no thrombin or PPACK was used.
The determination of IC50 values was done the same as in the primary FXIIIa screening assay, except that purified compounds were used at varying concentrations (instead of crude culture extracts). The IC50 values allow one to make comparisons of one compound to another.

tTG = target: T2, tTG (Cavia cutleri, UniProt P08587); experiment: Fibrinogen clotting assay, tTG (alpha bands scanned); type: biochemical; conditions: read-out: % tTG Inhibition
T2 construct: purchased Sigma
T2 sequence (P08587 1-690): T1 sequence (P08587 1-690)
Protocol: Clots were formed in 1.5 ml Eppendorf tubes by adding reagents to give the following final assay concentrations in a total volume of 100 μl: 2 mg/ml FXIII-free fibrinogen purified on a rabbit anti-FXIII column (Enzyme Research Labs); 20 mM CaCl2; 1 unit/ml thrombin (bovine, Enzyme Research Labs); and either 1 μg/ml FXIIIa (recombinant human FXIIIa2 (ZymoGenetics)) or 20 μg/ml tTG (Sigma) in 120 mM NaCl plus 25 mM Tris at about pH 7.2. In addition, 10 μl of one of the following was added to each tube in varying concentrations to determine a dose response: iodoacetamide, ZG-1400a or cerulenin. The final reaction volume in each Eppendorf tube was adjusted to 100 μl with 120 mMNaCl plus 25 mM Tris at about pH 7.2.
A positive (complete cross-linking) control contained fibrinogen, enzyme (FXIIIa or tTG), calcium, and thrombin at final assay concentrations listed above, and was tested in the absence of any inhibitor. A negative (no cross-linking) control contained a solution of FXIII-free fibrinogen, thrombin and 20 μM EDTA [(ethylene dinitrilo)tetraacetic acid, disodium salt, dihydrate (J. T. Baker, Phillipsburg, N.J.)] in the absence of calcium and enzyme. Both positive and negative controls contained a final DMSO concentration of 1%. The FXIIIa-treated clots and their controls were incubated for about 10 min at about 37° C., while the tTG-treated clots and their controls were incubated for about 4 h at about 37° C. After incubation, all of the clots and controls were frozen to quench reactions.
Frozen clots and controls were boiled for about 3 min, centrifuged at 14,000 RPM for 5 min, and then the supernatant was removed. The clots were resuspended in 100 μl lysis buffer and incubated overnight at 37° C. The lysis buffer Contained 10M urea, 10 mM EDTA, 1% sodium dodecyl sulfate ("SDS"), and 1% 2-mercaptoethanol. After incubation, approximately 5 μl of each sample was brought to a final volume of 20 μl with a reducing sample buffer (containing 125 mM Tris, pH 6.8, 20% glycerol, 4% SDS, 10% 2-mercaptoethanol, and 0.025% bromophenol blue), and applied to 4-15% gradient gels (Integrated Separation Systems, Natick, Mass.) for polyacrylamide electrophoresis (PAGE) at 200 volts for approximately 1 h or until the tracking dye reached the bottom of the gel.
After staining with Coomassie blue, the alpha, beta, and gamma chains of fibrin were visualized as bands on the gel. The presence of FXIIIa-catalyzed fibrin cross-linking was observed by the appearance of a gamma-gamma dimer, and the disappearance of the monomeric gamma band from the gels. The tTG cross-linking occurs by formation of alpha chain polymers and alpha2 -gamma oligomers. Since there are many bands, they are difficult to visualize. A better indication of tTG cross-linking was the disappearance of the monomeric alpha band from the gels. In addition, the gamma band was reduced, but to a lesser degree than in FXIIIa cross-linked clots.
The gels were also scanned on a densitometer (Bio Image Whole Band Analyzer, Millipore Corp., Bedford, Mass.). The relative intensity of gamma-gamma bands were scanned and compared for FXIIIa inhibition, while alpha bands were scanned and compared for tTG inhibition. No cross-linkingwas detected in the negative controls containing only FXIII-free fibrinogen thrombin and DMSO. […] The inhibition results obtained from PAGE of samples prepared as described above, and containing ZG-1400a at 100 μM and 10 μM, or cerulenin or iodoacetamide at 1 mM, 100 μM, and 10 μM, are shown in Table 2.

[2] = purified compound, read-out: IC50 tTG Screen
[3] = 10 μM, alpha bands, densitometer
[4] = 100 μM, alpha bands, densitometer

SMILES	IC50 [1] [µM]	inhibition at 10 µM (tTG) [%]	inhibition at 100 µM (tTG) [%]	inhibition at 1000 µM (tTG) [%]	IC50 [1, 2] [µM]	inhibition at 10 µM (tTG; [3]) [%]	inhibition at 100 µM (tTG; [4]) [%]	inhibition at 1000 µM (tTG; 1 mM, alpha bands, densitometer) [%]	inhibition of tTG ([1]; 0.01X concentration)	inhibition of tTG ([1]; 0.1X concentration)
NC(=O)CI [Iodoacetamide, iodoacetamide]	10	72	68	60						
CC=CCC=CCCC(=O)C1OC1C(N)=O (stereo not shown) [Cerulenin, 2,3-epoxy-4-oxo-7,10-dodecadienamide]					25	30	79	94		
C[C@@H]1CCC/C=C\C(=O)Cc2cc(O)cc(O)c2C(=O)O1 [ZG-1400, R(-) enantiomer of cis-resorcylide]					3.1	80	83		about 95%	about 70%
